The test system of data set [1] is Topo II. As to conditions: read-out: Topo II IC50; cited from earlier work.
The subject of another data set is HCT-116 cells. The experiment in a line: MTT cytotoxicity assay, HCT-116. Particulars: Homo sapiens.
For data set [2], the system named is HepG-2, HCT-116, MCF-7 and HeLa cells. Description: MTT cytotoxicity assay, all four cancer cell lines together. In kind it is cell-based. Particulars: for Cytotoxic activity category, all four tested cancer cell lines: category in words by IC50, HepG-2, HCT-116, MCF-7, HeLa.
The subject of another data set is MCF-7 cells. The experiment in a line: MTT cytotoxicity assay, MCF-7. Particulars: Homo sapiens. A general note: Formazan colour is commonly taken as a measure of viable cells.
In the next data set the test system is HeLa cells. Description: MTT cytotoxicity assay, HeLa. As to conditions: Homo sapiens.
Data set [3] deals with HepG-2 cells. Description: MTT cytotoxicity assay, HepG-2. In kind it is cell-based. As to conditions: Homo sapiens.
A further data set deals with WI-38 cell line. Description: In vitro cytotoxicity against normal WI-38 cell line. In kind it is cell-based. Particulars: Homo sapiens, WI-38, read-out: Normal cells IC50 WI-38.
A further data set addresses VEGFR-2 (Homo sapiens, UniProt P35968). The experiment in a line: In vitro VEGFR-2 enzyme inhibition assay. In kind it is biochemical.
The target in data set [4] is EGFR, VEGFR-2, and Topo II. The experiment in a line: In vitro enzyme inhibition assays, three enzymes together. In kind it is biochemical. Particulars: read-out: IC50 range on EGFR, VEGFR-2, and Topo II; range over the three enzymes.
For the next data set, the target named is EGFR (Homo sapiens, UniProt P00533). Description: biochemical. In kind it is biochemical.
Data set [5] deals with HepG-2 cells. Description: Annexin V-FITC/PI apoptosis assay. In kind it is cell-based. Particulars: HepG-2, 24 h.
The test system of data set [6] is HepG-2 cells. Description: Flow cytometry cell cycle analysis. In kind it is cell-based. As to conditions: HepG-2, PI staining. Background: Flow cytometry measures light scatter and fluorescence of single cells or particles in a stream.
Data set [7] has as its target Topo II. Description: In vitro Topo II enzyme inhibition assay. As to conditions: read-out: Topo II IC50; mean ± SD. In kind it is biochemical.
Data set [8] addresses Topoisomerase II (Topo II). As to conditions: read-out: Topo II IC50; cited from earlier work.
For another data set, the system named is Topo IIB. Particulars: read-out: Topo IIB IC50; cited from earlier work.
Setting [9] is: HCT-116, 48 h, read-out: In vitro Cytotoxicity IC50 HCT-116.
Setting [10] is: MCF7, 48 h, read-out: In vitro Cytotoxicity IC50 MCF-7.
Where [11] appears, read: 48 h, read-out: In vitro Cytotoxicity IC50 HeLa.
Where [12] appears, read: HepG2, 48 h, read-out: In vitro Cytotoxicity IC50 HepG-2.
Setting [13] is: HCT-116, read-out: Cytotoxic activity category, HCT-116.
The mark [14] stands for this setting: MCF7, read-out: Cytotoxic activity category, MCF-7.
Where [15] appears, read: read-out: Cytotoxic activity category, HeLa.
[16] abbreviates: HepG2, read-out: Cytotoxic activity category, HepG-2.
Setting [17] is: read-out: Cytotoxic activity category, all four tested cancer cell lines.
[18] abbreviates: read-out: IC50 range over the four cancer cell lines.

Read-outs that look alike come from different tables or passages of the source.

EGFR, sequence (P00533 25-1210): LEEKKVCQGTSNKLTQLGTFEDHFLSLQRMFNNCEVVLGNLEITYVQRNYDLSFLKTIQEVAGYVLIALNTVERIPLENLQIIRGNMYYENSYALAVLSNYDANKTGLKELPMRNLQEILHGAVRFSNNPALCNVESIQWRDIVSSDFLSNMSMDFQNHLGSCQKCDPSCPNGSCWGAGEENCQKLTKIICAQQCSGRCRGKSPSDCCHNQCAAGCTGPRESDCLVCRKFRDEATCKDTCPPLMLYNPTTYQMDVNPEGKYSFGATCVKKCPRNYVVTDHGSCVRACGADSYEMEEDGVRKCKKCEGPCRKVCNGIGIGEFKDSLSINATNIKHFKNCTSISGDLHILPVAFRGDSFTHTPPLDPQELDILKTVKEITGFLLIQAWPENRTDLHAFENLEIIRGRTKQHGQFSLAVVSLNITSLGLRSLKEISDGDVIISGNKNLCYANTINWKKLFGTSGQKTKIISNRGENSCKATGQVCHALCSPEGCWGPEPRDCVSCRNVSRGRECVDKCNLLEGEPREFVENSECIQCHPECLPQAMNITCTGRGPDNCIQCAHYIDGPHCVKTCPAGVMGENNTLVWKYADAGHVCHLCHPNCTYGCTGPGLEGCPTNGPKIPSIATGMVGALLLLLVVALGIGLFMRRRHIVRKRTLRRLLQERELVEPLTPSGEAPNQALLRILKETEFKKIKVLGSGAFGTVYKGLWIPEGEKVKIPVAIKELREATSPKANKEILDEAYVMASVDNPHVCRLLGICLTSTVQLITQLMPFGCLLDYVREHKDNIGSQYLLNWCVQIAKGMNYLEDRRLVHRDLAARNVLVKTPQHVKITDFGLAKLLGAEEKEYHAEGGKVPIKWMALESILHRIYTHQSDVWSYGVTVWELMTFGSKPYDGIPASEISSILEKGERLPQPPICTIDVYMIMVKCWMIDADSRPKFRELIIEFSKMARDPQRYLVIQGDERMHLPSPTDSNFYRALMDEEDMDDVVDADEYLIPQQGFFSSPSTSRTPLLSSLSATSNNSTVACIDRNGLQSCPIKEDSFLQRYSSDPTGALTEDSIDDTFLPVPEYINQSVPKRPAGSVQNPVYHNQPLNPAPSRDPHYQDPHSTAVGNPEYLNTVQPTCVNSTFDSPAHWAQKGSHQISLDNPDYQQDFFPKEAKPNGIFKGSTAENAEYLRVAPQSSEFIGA
VEGFR-2, sequence (P35968 20-1356): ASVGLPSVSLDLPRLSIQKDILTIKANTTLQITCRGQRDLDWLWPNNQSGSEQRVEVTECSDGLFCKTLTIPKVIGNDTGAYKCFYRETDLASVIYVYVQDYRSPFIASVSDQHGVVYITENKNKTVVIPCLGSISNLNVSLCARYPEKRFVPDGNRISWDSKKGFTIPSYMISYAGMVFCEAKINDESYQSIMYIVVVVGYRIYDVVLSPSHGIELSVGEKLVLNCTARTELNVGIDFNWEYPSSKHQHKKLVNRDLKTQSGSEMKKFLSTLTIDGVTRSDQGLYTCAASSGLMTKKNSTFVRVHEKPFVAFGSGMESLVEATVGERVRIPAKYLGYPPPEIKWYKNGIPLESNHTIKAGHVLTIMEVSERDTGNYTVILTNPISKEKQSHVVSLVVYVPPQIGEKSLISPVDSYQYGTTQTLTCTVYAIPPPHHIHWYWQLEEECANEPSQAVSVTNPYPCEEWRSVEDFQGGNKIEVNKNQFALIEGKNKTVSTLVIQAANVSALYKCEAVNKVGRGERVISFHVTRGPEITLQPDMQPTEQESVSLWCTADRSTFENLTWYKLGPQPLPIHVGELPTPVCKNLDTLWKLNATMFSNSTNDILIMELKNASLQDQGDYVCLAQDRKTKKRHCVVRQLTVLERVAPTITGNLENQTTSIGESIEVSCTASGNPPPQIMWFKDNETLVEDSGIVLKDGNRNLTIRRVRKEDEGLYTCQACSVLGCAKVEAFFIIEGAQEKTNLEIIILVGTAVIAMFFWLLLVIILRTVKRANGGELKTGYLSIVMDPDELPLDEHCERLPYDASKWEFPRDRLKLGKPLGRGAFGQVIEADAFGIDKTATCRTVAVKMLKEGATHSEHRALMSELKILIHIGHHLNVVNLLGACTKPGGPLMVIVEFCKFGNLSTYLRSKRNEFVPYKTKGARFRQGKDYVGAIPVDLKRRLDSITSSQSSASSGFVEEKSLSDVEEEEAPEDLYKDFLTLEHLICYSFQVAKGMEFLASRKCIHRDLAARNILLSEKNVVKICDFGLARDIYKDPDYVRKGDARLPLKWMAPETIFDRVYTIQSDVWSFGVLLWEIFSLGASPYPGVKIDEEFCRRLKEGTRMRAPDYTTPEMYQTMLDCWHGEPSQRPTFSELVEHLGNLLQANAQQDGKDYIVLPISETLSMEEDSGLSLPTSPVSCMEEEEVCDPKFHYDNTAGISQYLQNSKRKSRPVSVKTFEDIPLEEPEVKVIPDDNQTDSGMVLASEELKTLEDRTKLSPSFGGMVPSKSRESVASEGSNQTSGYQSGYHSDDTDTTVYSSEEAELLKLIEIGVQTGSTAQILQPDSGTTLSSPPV

Turning to 2-phenylthiomethylbenzimidazole [VI], the IC50 in the data set with Topo II [1] is 17 µM.
With `Cc1c(C(=O)NNC(=O)Nc2cccc3ccccc23)nnn1Cc1nc2ccccc2[nH]1` [Compound 5c, 2-{1-[(1h-Benzo[d]imidazol-2-yl)methyl]-5-methyl-1H-1,2,3-triazole-4-carbonyl}-N-(naphthalen-1-yl)hydrazinecarboxamide], the IC50 in the data set on HCT-116 cells (setting [9]) was found to be 59.2 ± 3.3 µM; in the data set with MCF-7 cells (setting [10]), 45.4 ± 2.9 µM; in the data set on HeLa cells (setting [11]), 27.6 ± 2 µM; in the data set with HepG-2 cells [3] (setting [12]) it was 67.4 ± 3.5 µM. In [2], the “Cytotoxic activity category, all four tested cancer cell lines” value is recorded as “weak to moderate”.
Regarding `Cc1c(C(=O)NNC(=S)Nc2ccccc2)nnn1Cc1nc2ccccc2[nH]1` [Compound 5d, 2-{1-[(1h-Benzo[d]imidazol-2-yl)methyl]-5-methyl-1H-1,2,3-triazole-4-carbonyl}-N-phenylhydrazinecarbothioamide], the IC50 was 41.4 ± 2.8 µM with HCT-116 cells (setting [9]); 21 to 50 µM with HCT-116 cells (setting [13]); 30.8 ± 2.3 µM with MCF-7 cells (setting [10]); 21 to 50 µM with MCF-7 cells (setting [14]); 12.4 ± 0.9 µM in the data set with HeLa cells (setting [11]); 11 to 20 µM in the data set on HeLa cells (setting [15]). Moreover, the IC50 in the data set on HepG-2 cells [3] (setting [12]) is 57.2 ± 3.2 µM; with HepG-2 cells [3] (setting [16]), 51 to 100 µM.
Consider `Cc1ccc(NC(=S)NNC(=O)c2nnn(Cc3nc4ccccc4[nH]3)c2C)cc1` [Compound 5f, 2-{1-[(1h-Benzo[d]imidazol-2-yl)methyl]-5-methyl-1H-1,2,3-triazole-4-carbonyl}-N-(p-tolyl)hydrazinecarbothioamide], for which the IC50 stood at 68.5 ± 3.7 µM in the data set with HCT-116 cells (setting [9]), 64.1 ± 3.3 µM with MCF-7 cells (setting [10]), 58.1 ± 3.1 µM in the data set with HeLa cells (setting [11]) and 72.7 ± 3.8 µM in the data set on HepG-2 cells [3] (setting [12]).
With `COc1ccc(NC(=S)NNC(=O)c2nnn(Cc3nc4ccccc4[nH]3)c2C)cc1` [Compound 5g, 2-{1-[(1h-Benzo[d]imidazol-2-yl)methyl]-5-methyl-1H-1,2,3-triazole-4-carbonyl}-N-(4-methoxyphenyl)hydrazinecarbothioamide], the IC50 in the data set with HCT-116 cells (setting [9]) was determined as 18.7 ± 1.5 µM; in the data set with MCF-7 cells (setting [10]) it was 9.39 ± 0.8 µM; in the data set with HeLa cells (setting [11]), 8.7 ± 0.6 µM; in the data set on HepG-2 cells [3] (setting [12]), 13.6 ± 1 µM.
For the molecule `Cc1c(C(=O)NNC(=O)Nc2ccccc2)nnn1Cc1nc2ccccc2[nH]1` [Compound 5h, 2-{1-[(1h-Benzo[d]imidazol-2-yl)methyl]-5-methyl-1H-1,2,3-triazole-4-carbonyl}-N-phenylhydrazinecarboxamide], the IC50 in the data set with HCT-116 cells (setting [9]) was found to be 54.8 ± 3 µM; in the data set with MCF-7 cells (setting [10]) it was 38 ± 2.6 µM; with HeLa cells (setting [11]) it was 31.6 ± 2.3 µM; in the data set on HepG-2 cells [3] (setting [12]) it was 42.1 ± 2.7 µM. Moreover, the “Cytotoxic activity category, all four tested cancer cell lines” value in data set [2] was “weak to moderate”.
`Cc1c(C(=O)N/N=C/c2ccc(Cl)cc2)nnn1Cc1nc2ccccc2[nH]1` [Compound 6a, (E)-1-[(1H-Benzo[d]imidazol-2-yl)methyl]-N′-(4-chlorobenzylidene)-5-methyl-1H-1,2,3-triazole-4-carbohydrazide]: the IC50 in the data set on HCT-116 cells (setting [9]) was 28.2 ± 2.5 µM; in [2] (setting [17]), 21 to 50 µM; in data set [2] (setting [18]), 28.2 to 47 µM; in the data set with MCF-7 cells (setting [10]) it was 39.5 ± 2.6 µM; in the data set on HeLa cells (setting [11]), 35.3 ± 2.5 µM; in the data set on HepG-2 cells [3] (setting [12]) it was 47 ± 2.8 µM.
Regarding `Cc1c(C(=O)N/N=C/c2ccccc2)nnn1Cc1nc2ccccc2[nH]1` [Compound 6b, (E)-1-[(1H-Benzo[d]imidazol-2-yl)methyl]-N′-benzylidene-5-methyl-1H-1,2,3-triazole-4-carbohydrazide], the IC50 worked out at 75.1 ± 3.8 µM in the data set with HCT-116 cells (setting [9]), 57.6 ± 3.3 µM with MCF-7 cells (setting [10]), 61.2 ± 3.4 µM in the data set with HeLa cells (setting [11]) and 84.5 ± 4.1 µM in the data set with HepG-2 cells [3] (setting [12]).
Regarding `Cc1c(C(=O)N/N=C/c2cccc(Br)c2)nnn1Cc1nc2ccccc2[nH]1` [Compound 6c, (E)-1-[(1H-Benzo[d]imidazol-2-yl)methyl]-N′-(3-bromobenzylidene)-5-methyl-1H-1,2,3-triazole-4-carbohydrazide], the IC50 in the data set with HCT-116 cells (setting [9]) amounted to 63.6 ± 3.3 µM; with MCF-7 cells (setting [10]), 44.8 ± 2.9 µM; in the data set with HeLa cells (setting [11]) it was 48.8 ± 2.8 µM; with HepG-2 cells [3] (setting [12]), 56.3 ± 3.2 µM.
Regarding `Cc1c(C(=O)N/N=C/c2cccc([N+](=O)[O-])c2)nnn1Cc1nc2ccccc2[nH]1` [Compound 6d, (E)-1-[(1H-Benzo[d]imidazol-2-yl)methyl]-5-methyl-N′-(3-nitrobenzylidene)-1H-1,2,3-triazole-4-carbohydrazide], the IC50 turned out to be 36.5 ± 2.7 µM in the data set with HCT-116 cells (setting [9]), 48.2 ± 3 µM in the data set with MCF-7 cells (setting [10]), 52.2 ± 3.1 µM with HeLa cells (setting [11]) and 71.5 ± 3.6 µM in the data set with HepG-2 cells [3] (setting [12]).
Regarding `COc1ccc(/C=N/NC(=O)c2nnn(Cc3nc4ccccc4[nH]3)c2C)cc1OC` [Compound 6e, (E)-1-[(1H-Benzo[d]imidazol-2-yl)methyl]-N′-(3,4-dimethoxybenzylidene)-5-methyl-1H-1,2,3-triazole-4-carbohydrazide], the IC50 with HCT-116 cells (setting [9]) was 19.7 ± 1.7 µM; in the data set with HCT-116 cells (setting [13]) it was 11 to 20 µM; with MCF-7 cells (setting [10]), 23.7 ± 1.9 µM; in the data set with MCF-7 cells (setting [14]), 21 to 50 µM; in the data set with HeLa cells (setting [11]), 29.1 ± 2.3 µM; in the data set on HeLa cells (setting [15]) it was 21 to 50 µM. The IC50 is 33.6 ± 2.3 µM in the data set with HepG-2 cells [3] (setting [12]) and 21 to 50 µM with HepG-2 cells [3] (setting [16]).
As to `Cc1c(C(=O)N/N=C/c2ccc(N(C)C)cc2)nnn1Cc1nc2ccccc2[nH]1` [Compound 6f, (E)-1-[(1H-Benzo[d]imidazol-2-yl)methyl]-N′-[4-(dimethylamino)benzylidene]-5-methyl-1H-1,2,3-triazole-4-carbohydrazide], the IC50 was 11.7 ± 0.9 µM in the data set with HCT-116 cells (setting [9]); 11 to 20 µM in the data set with HCT-116 cells (setting [13]); 14.7 ± 1.1 µM in the data set on MCF-7 cells (setting [10]); 11 to 20 µM in the data set on MCF-7 cells (setting [14]); 22.8 ± 1.9 µM in the data set on HeLa cells (setting [11]); 21 to 50 µM with HeLa cells (setting [15]). For the same molecule, the IC50 in the data set on HepG-2 cells [3] (setting [12]) is 18.3 ± 1.5 µM; in the data set with HepG-2 cells [3] (setting [16]) it was 11 to 20 µM.
On to `COc1cc(/C=N/NC(=O)c2nnn(Cc3nc4ccccc4[nH]3)c2C)ccc1O` [Compound 6g, (E)-1-[(1H-Benzo[d]imidazol-2-yl)methyl]-N′-(4-hydroxy-3-methoxybenzylidene)-5-methyl-1H-1,2,3-triazole-4-carbohydrazide], for which the IC50 was 43.3 ± 2.6 µM in the data set with WI-38 cell line; 3.34 ± 0.4 µM with HCT-116 cells (setting [9]); 1 to 10 µM in data set [2] (setting [17]); 3.34 to 10.9 µM in [2] (setting [18]); 0.131 to 8.37 µM in [4]; 0.131 ± 0.005 µM against EGFR. The IC50 is 7.11 ± 0.5 µM in the data set on MCF-7 cells (setting [10]), 9.84 ± 0.7 µM with HeLa cells (setting [11]), 10.9 ± 0.8 µM in the data set on HepG-2 cells [3] (setting [12]) and 8.37 ± 0.49 µM at Topo II [7]. For the same molecule, the “Activity relative to Sorafenib against VEGFR-2” value on VEGFR-2 was 21%. Further, the “Activity relative to Gefitinib against EGFR” value on EGFR was ~40%. In addition, in the data set on HepG-2 cells [5], the “Apoptosis Early (Q4)” value is 11.02%. In addition, the “Apoptosis Late (Q2)” value with HepG-2 cells [5] turned out to be 19.85%. Also, the “Apoptosis Total” value in the data set with HepG-2 cells [5] turned out to be 30.87%. Also, in the data set on HepG-2 cells [5], the “Necrosis (Q1)” value is 5.41%. Also, the “Cell cycle distribution G0-G1” value in the data set on HepG-2 cells [6] is 38.91%. In the data set with HepG-2 cells [6], the “Cell cycle distribution G2/M” value is recorded as 33.81%. In the data set with HepG-2 cells [6], the “Cell cycle distribution Pre-G1” value worked out at 36.28%. Further, the “Cell cycle distribution S” value in the data set with HepG-2 cells [6] was determined as 27.28%.
On to `CN1CCN(c2ccc3nc(-c4c(N)c5c(F)cccc5[nH]c4=O)[nH]c3c2)CC1` [Dovitinib], for which the IC50 in data set [8] was 13 µM.
For the molecule `COc1cccc2c1C(=O)c1c(O)c3c(c(O)c1C2=O)C[C@@](O)(C(=O)CO)C[C@@H]3O[C@H]1C[C@H](N)[C@H](O)[C@H](C)O1` [Dox, Doxorubicin, reference compound], the IC50 in [2] (setting [18]) is 4.17 to 5.57 µM; in the data set with Topo IIB, 0.83 µM; with HepG-2 cells [3] (setting [12]), 4.5 ± 0.2 µM.
Take `COc1cc([C@@H]2c3cc4c(cc3[C@@H](O[C@@H]3O[C@@H]5CO[C@@H](C)O[C@H]5[C@H](O)[C@H]3O)[C@H]3COC(=O)[C@H]23)OCO4)cc(OC)c1O` [Etoposide]: the IC50 with Topo II [1] was […].

The record behind these values is paper PMC9858449 (Journal of Enzyme Inhibition and Medicinal Chemistry, 2023).
